Measured values from ChEMBL document CHEMBL3046213, “Repellent, insecticidal and phytotoxic activities of isoalantolactone from Inula racemosa” (Crop Prot, 2006).

Experiments:
Triticum aestivum [1] = assay: Phytotoxicity in Triticum aestivum (wheat) assessed as germination rate at 500 ug/ml pre-soaked for 60 min measured after 48 hr relative to acetone-treated control; type: organism-based; settings: in vivo
Sitophilus oryzae [2] = assay: Repellent activity against Sitophilus oryzae (rice weevil) assessed as settling responses at 125 ug/g preincubated for 12 hr prior to inoculation measured after 24 hr by food preference chamber method (reference value: 49.45 +/- 2.65 %); type: functional
Sitophilus oryzae [3] = assay: Insecticidal activity against Sitophilus oryzae (rice weevil) assessed as mortality at 1000 ug/g after 20 days by food poison technique relative to acetone-treated control; type: functional
Triticum aestivum [4] = assay: Phytotoxicity in Triticum aestivum (wheat) assessed as root growth at 500 ug/ml pre-soaked for 60 min measured after 120 hr relative to acetone-treated control; type: organism-based; settings: in vivo
Sitophilus oryzae [5] = assay: Insecticidal activity against Sitophilus oryzae (rice weevil) assessed as mortality at 400 ug/g after 10 days by food poison technique relative to acetone-treated control; type: functional
Sitophilus oryzae [6] = assay: Insecticidal activity against Sitophilus oryzae (rice weevil) assessed as mortality at 2000 ug/g after 10 days by food poison technique relative to acetone-treated control; type: functional
Sitophilus oryzae [7] = assay: Insecticidal activity against Sitophilus oryzae (rice weevil) assessed as mortality at 400 ug/g after 5 days by food poison technique relative to acetone-treated control; type: functional
Triticum aestivum [8] = assay: Phytotoxicity in Triticum aestivum (wheat) assessed as shoot growth at 500 ug/ml pre-soaked for 30 min measured after 120 hr relative to acetone-treated control; type: organism-based; settings: in vivo
Sitophilus oryzae [9] = assay: Insecticidal activity against Sitophilus oryzae (rice weevil) assessed as mortality at 600 ug/g after 10 days by food poison technique relative to acetone-treated control; type: functional
Sitophilus oryzae [10] = assay: Insecticidal activity against Sitophilus oryzae (rice weevil) assessed as mortality at 0.05 ug/g after 5 days by food poison technique relative to acetone-treated control; type: functional
Triticum aestivum [11] = assay: Phytotoxicity in Triticum aestivum (wheat) assessed as shoot growth at 500 ug/ml pre-soaked for 60 min measured after 72 hr relative to acetone-treated control; type: organism-based; settings: in vivo
Triticum aestivum [12] = assay: Phytotoxicity in Triticum aestivum (wheat) assessed as shoot growth at 500 ug/ml pre-soaked for 30 min measured after 96 hr relative to acetone-treated control; type: organism-based; settings: in vivo
Sitophilus oryzae [13] = assay: Insecticidal activity against Sitophilus oryzae (rice weevil) assessed as mortality at 3000 ug/g after 15 days by food poison technique relative to acetone-treated control; type: functional
Sitophilus oryzae [14] = assay: Insecticidal activity against Sitophilus oryzae (rice weevil) assessed as mortality at 200 ug/g after 10 days by food poison technique relative to control; type: functional
Triticum aestivum [15] = assay: Phytotoxicity in Triticum aestivum (wheat) assessed as root growth at 500 ug/ml pre-soaked for 60 min measured after 72 hr relative to acetone-treated control; type: organism-based; settings: in vivo
Triticum aestivum [16] = assay: Phytotoxicity in Triticum aestivum (wheat) assessed as root growth at 500 ug/ml pre-soaked for 30 min measured after 96 hr relative to acetone-treated control; type: organism-based; settings: in vivo
Triticum aestivum [17] = assay: Phytotoxicity in Triticum aestivum (wheat) assessed as shoot growth at 500 ug/ml pre-soaked for 30 min measured after 72 hr relative to acetone-treated control; type: organism-based; settings: in vivo
Sitophilus oryzae [18] = assay: Insecticidal activity against Sitophilus oryzae (rice weevil) assessed as mortality after 5 days by food poison technique; type: functional
Sitophilus oryzae [19] = assay: Insecticidal activity against Sitophilus oryzae (rice weevil) assessed as mortality at 200 ug/g after 5 days by food poison technique relative to acetone-treated control; type: functional
Sitophilus oryzae [20] = assay: Insecticidal activity against Sitophilus oryzae (rice weevil) assessed as mortality at 1000 ug/g after 15 days by food poison technique relative to acetone-treated control; type: functional
Triticum aestivum [21] = assay: Phytotoxicity in Triticum aestivum (wheat) assessed as germination rate at 500 ug/ml pre-soaked for 30 min measured after 96 hr relative to acetone-treated control; type: organism-based; settings: in vivo
Sitophilus oryzae [22] = assay: Insecticidal activity against Sitophilus oryzae (rice weevil) assessed as mortality after 20 days by food poison technique; type: functional
Sitophilus oryzae [23] = assay: Insecticidal activity against Sitophilus oryzae (rice weevil) assessed as mortality at 1000 ug/g after 5 days by food poison technique relative to acetone-treated control; type: functional
Sitophilus oryzae [24] = assay: Insecticidal activity against Sitophilus oryzae (rice weevil) assessed as mortality at 3000 ug/g after 10 days by food poison technique relative to acetone-treated control; type: functional
Triticum aestivum [25] = assay: Phytotoxicity in Triticum aestivum (wheat) assessed as root growth at 500 ug/ml pre-soaked for 60 min measured after 48 hr relative to acetone-treated control; type: organism-based; settings: in vivo
Sitophilus oryzae [26] = assay: Insecticidal activity against Sitophilus oryzae (rice weevil) assessed as mortality at 600 ug/g after 20 days by food poison technique relative to acetone-treated control; type: functional
Sitophilus oryzae [27] = assay: Insecticidal activity against Sitophilus oryzae (rice weevil) assessed as mortality at 2000 ug/g after 5 days by food poison technique relative to acetone-treated control; type: functional
Sitophilus oryzae [28] = assay: Insecticidal activity against Sitophilus oryzae (rice weevil) assessed as mortality at 400 ug/g after 15 days by food poison technique relative to acetone-treated control; type: functional
Sitophilus oryzae [29] = assay: Insecticidal activity against Sitophilus oryzae (rice weevil) assessed as mortality at 600 ug/g after 5 days by food poison technique relative to acetone-treated control; type: functional
Sitophilus oryzae [30] = assay: Insecticidal activity against Sitophilus oryzae (rice weevil) assessed as mortality at 200 ug/g after 20 days by food poison technique relative to acetone-treated control; type: functional
Sitophilus oryzae [31] = assay: Insecticidal activity against Sitophilus oryzae (rice weevil) assessed as mortality at 2000 ug/g after 15 days by food poison technique relative to acetone-treated control; type: functional

C=C1C(=O)O[C@@H]2C[C@@]3(C)CCCC(=C)[C@@H]3C[C@H]12 [ISOALANTOLACTONE]
Activity (Triticum aestivum [1]): 76.1% | Activity (Sitophilus oryzae [2]): 13.22% | mortality (Sitophilus oryzae [3]): 74.36% | Activity (Triticum aestivum [4]): 83.9% | mortality (Sitophilus oryzae [5]): 23.81% | mortality (Sitophilus oryzae [6]): 100% | mortality (Sitophilus oryzae [7]): 19.04% | Activity (Triticum aestivum [8]): 100.4% | mortality (Sitophilus oryzae [9]): 55.38% | mortality (Sitophilus oryzae [10]): 86.54% | Activity (Triticum aestivum [11]): 51.7% | Activity (Triticum aestivum [12]): 96% | mortality (Sitophilus oryzae [13]): 100% | mortality (Sitophilus oryzae [14]): 16.67% | Activity (Triticum aestivum [15]): 63.7% | Activity (Triticum aestivum [16]): 99.1% | Activity (Triticum aestivum [17]): 102% | LC50 (Sitophilus oryzae [18]): 1234.57 µg/g | mortality (Sitophilus oryzae [19]): 11.9% | mortality (Sitophilus oryzae [20]): 69.23% | Activity (Triticum aestivum [21]): 100% | LC50 (Sitophilus oryzae [22]): 610.51 µg/g | mortality (Sitophilus oryzae [23]): 42.86% | mortality (Sitophilus oryzae [24]): 100% | Activity (Triticum aestivum [25]): 46% | mortality (Sitophilus oryzae [26]): 58.97% | mortality (Sitophilus oryzae [27]): 76.19% | mortality (Sitophilus oryzae [28]): 30.77% | mortality (Sitophilus oryzae [29]): 33.33% | mortality (Sitophilus oryzae [30]): 17.95% | mortality (Sitophilus oryzae [31]): 100%
